{"source": "patent US12295937B2", "about": "“Psychoactive medicines and their use for treating psychiatric and neurological conditions and disorders” (Transcend Therapeutics, Inc., priority 2021, dated 2025)", "key": {"[1]": {"assay": "Mouse fear extinction paradigm (PTSD model)", "assay_type": "in vivo", "conditions": "30 mg/kg IP 30 min before extinction training; day 3", "from_the_text": "(FIG. 9A) Schematic of experimental design. A single CS-US (tone-shock) pairing on day 1 was followed by 6 CS presentations in a novel context (context B). […] On day 3, the time spent freezing to the CS was quantified. […] (FIG. 9C) No locomotor changes were observed on day 3 (t(26)=1.073, p>0.05). Data are mcan+/−SEM.\nFIGS. 10A-10B: MBDB improves fear extinction in a PTSD mouse model. A single CS-US (tone-shock) pairing on day 1 was followed by 6 conditioned stimulus (CS) presentations in a novel context (context B). MBDB or saline vehicle was injected 30 min prior to extinction training on day 2. The time spent freezing to the CS was quantified on day 2. […] Data are mean+/−SEM. N=10 for MBDB group (5 mg/kg, IP) and N=16 for saline control group. **p<0.01 vs. vehicle control group.\nEffective PTSD treatments facilitate the disassociation between a traumatic memory and the patient's fear response, making cues for the traumatic memory evoke less of a fear response. This is modeled in the mouse fear extinction paradigm (see FIG. 9A) which takes place over 3 days. […] On day 3 (extinction recall), the mice are “asked” if that tone (CS) still elicits a fearful response, as measured by the time spent freezing when the tone is presented. […]"}, "5HT2C receptor": {"molecular_target": "T1, 5HT2C receptor (Homo sapiens, UniProt P28335)", "T1 construct": "host or cells: PathHunter cell lines", "T1 sequence (P28335 33-458)": "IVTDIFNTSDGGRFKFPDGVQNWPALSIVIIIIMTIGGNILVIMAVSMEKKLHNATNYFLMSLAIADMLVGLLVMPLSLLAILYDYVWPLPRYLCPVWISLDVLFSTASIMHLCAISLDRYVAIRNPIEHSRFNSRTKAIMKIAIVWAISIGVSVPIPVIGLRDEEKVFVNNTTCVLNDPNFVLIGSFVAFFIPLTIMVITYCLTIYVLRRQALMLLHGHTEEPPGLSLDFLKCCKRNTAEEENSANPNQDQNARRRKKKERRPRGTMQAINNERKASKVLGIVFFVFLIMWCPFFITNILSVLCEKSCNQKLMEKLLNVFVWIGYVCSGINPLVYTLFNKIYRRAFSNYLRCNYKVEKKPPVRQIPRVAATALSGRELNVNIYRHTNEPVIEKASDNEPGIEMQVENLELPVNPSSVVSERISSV", "assay": "GPCRmax screen, agonist mode, 5HT2C", "assay_type": "cell-based", "conditions": "1 or 10 mM"}, "[2]": {"molecular_target": "serotonin transporter (SERT) (Rattus norvegicus, UniProt P31652)", "sequence (P31652 whole entry)": "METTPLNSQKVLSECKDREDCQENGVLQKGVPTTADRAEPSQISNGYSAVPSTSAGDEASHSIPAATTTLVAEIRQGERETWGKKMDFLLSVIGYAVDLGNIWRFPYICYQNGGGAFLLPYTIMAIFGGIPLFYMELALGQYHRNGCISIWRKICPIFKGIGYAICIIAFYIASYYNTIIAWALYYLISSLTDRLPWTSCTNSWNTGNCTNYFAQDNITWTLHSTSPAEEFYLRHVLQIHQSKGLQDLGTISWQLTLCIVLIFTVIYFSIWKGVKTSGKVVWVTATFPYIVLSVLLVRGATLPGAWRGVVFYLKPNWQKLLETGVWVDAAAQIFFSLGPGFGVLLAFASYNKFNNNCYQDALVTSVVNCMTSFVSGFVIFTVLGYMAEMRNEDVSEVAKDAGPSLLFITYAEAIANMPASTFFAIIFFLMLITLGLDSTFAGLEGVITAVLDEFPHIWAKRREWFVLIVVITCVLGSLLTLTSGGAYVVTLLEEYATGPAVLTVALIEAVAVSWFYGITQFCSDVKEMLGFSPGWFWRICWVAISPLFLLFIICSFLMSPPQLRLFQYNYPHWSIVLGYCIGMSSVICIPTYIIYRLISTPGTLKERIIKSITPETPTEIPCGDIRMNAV", "assay": "[3H]5HT uptake saturation in rat brain synaptosomes with or without methylone", "assay_type": "biochemical", "conditions": "Kd right shifted, no decrease in Bmax"}, "DAT": {"molecular_target": "DAT (Rattus norvegicus, UniProt P23977)", "sequence (P23977 whole entry)": "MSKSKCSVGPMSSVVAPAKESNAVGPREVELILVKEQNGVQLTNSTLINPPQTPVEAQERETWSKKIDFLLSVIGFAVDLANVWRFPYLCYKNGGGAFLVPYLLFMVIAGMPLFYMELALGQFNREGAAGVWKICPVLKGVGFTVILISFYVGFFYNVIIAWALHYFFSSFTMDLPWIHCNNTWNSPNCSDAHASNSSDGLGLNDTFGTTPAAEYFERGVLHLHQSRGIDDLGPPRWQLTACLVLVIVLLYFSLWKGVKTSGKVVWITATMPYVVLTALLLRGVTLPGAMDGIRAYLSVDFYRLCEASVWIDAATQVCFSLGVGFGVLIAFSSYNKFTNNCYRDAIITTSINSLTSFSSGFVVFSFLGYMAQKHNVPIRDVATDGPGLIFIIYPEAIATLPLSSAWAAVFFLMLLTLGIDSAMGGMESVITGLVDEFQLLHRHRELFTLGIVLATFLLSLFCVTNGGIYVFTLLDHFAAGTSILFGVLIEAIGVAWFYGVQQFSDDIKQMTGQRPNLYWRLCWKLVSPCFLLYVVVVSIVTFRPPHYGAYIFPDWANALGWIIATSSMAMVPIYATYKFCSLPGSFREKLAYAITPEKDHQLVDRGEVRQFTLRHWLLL", "assay": "[3H]DA uptake inhibition in rat brain synaptosomes", "conditions": "read-out: Reuptake inhibition: IC50; rat brain synaptosomes"}, "SERT": {"molecular_target": "SERT (Rattus norvegicus, UniProt P31652)", "sequence (P31652 whole entry)": "as the sequence (P31652 whole entry) above", "assay": "[3H]5-HT uptake inhibition in rat brain synaptosomes", "conditions": "read-out: Reuptake inhibition: IC50; rat brain synaptosomes"}}, "data": [{"smiles": "CNC(C)C(=O)c1ccc2c(c1)OCO2", "note": "(centres unmarked) [Methylone, 3,4-methylenedioxy-N-methylcathinone]", "values": [{"measurement": "Enhancement of fear extinction recall vs. saline controls", "setting": "[1]", "result": "~60", "unit": "%"}, {"measurement": "Agonist % activity", "setting": "5HT2C receptor", "result": "no agonist or antagonist activity"}, {"measurement": "Type of interaction at the SERT", "setting": "[2]", "result": "competitive"}, {"measurement": "IC50", "setting": "DAT", "result": 2300, "unit": "nM"}, {"measurement": "IC50", "setting": "SERT", "result": 430, "unit": "nM"}]}]}
